Measured values taken from patent US20140303109A1 (priority 2010, published 2014).
Where two headings read alike, the source gives them in different places.

Columns and labels:
[1] = Serum pharmacokinetics after single intragastric dose; assay type: in vivo, mice
Method: (§1) The mice were randomly divided into two groups of 18 mice apiece. […] Blood and tissue samples were harvested before initiation of treatment (0 hr) and at 1, 2, 4, 6, 8, 12, 16, and 24 hrs following the intragastric administration. At each time point, two mice were euthanized and ˜200 μL blood was collected by cardiac puncture, and tissues (liver, lung, kidney, heart, pancreas, and colon) were harvested, washed free of blood with PBS, blotted dry, weighed, and stored at −80° C. until analysis. The collected blood samples were allowed to clot, centrifuged, and then the serum was separated and stored at −80° C. until analysis.
(§2) The tissue samples were homogenized in 5 volumes of ice-cold normal saline. Aliquots of serum or tissue homogenate were spiked with ethyl acetate (containing 50 ng/ml zilueton as an internal standard) as follows: 100 μL serum/500 μL ethyl acetate and 500 μL tissue homogenate/1 ml ethyl acetate. The mixtures were vortex-mixed and centrifuged at 14,000 rpm for 5 minutes. The top layer was separated and dried under a stream of nitrogen in a water bath at about 50° C. The residue was reconstituted in 100 μL of methanol/water containing 0.45% formic acid (70:30 v/v) and then centrifuged again.
(§3) The supernatant (100 μL) was injected into the HPLC equipment, and separated on a Waters Xterra MS column (2.1×50 mm, […] i.d.) With a mobile phase consisting of methanol/water containing 0.45% formic acid (70:30 v/v) at a flow rate of 0.2 ml/min. The column effluent was monitored using a Waters Quattro Micro™ triple quadrapole mass-spectrometric detector equipped with an electrospray ionization source. (Waters Corporation, Milford, Mass.). […] The internal standard zilueton was monitored in the positive mode at the transition of m/z, 237.1→160.8. […] The within-day and between-day precision and accuracies of the assay was <15%.
(§4) Serum pharmacokinetic parameters were estimated using non-compartmental analysis with WinNonlin software version 4.2 (Pharsight Corporation, Cary, N.C.). The maximum serum concentration (Cmax) and the time of occurrence for maximum concentration (Tmax) were obtained by visual inspection of the serum concentration-time curve after drug administration. The total area under the serum concentration-time curve from time zero to the last measurable time point ([…]) was calculated using the linear and logarithmic trapezoidal method for ascending and descending serum concentrations, respectively.

cellular 26S proteasome = target: T1, cellular 26S proteasome (Homo sapiens, UniProt P20618+P28074); assay: Proteasomal chymotrypsin-like activity in treated HCT 116 cells; assay type: cell-based; details: 24 h
T1 construct: host or cells: HCT 116 human colon cancer cells
Method: HCT 116 human colon cancer cells; human pancreatic carcinoma cell lines BxPC-3 and MIA PaCa-2, were purchased from American Type Culture Collection (Manassas, Va.) and grown in Dulbecco modified Eagle's medium supplemented with 10% fetal bovine serum (FBS), 100 units/ml of penicillin, and 100 μg/ml of streptomycin. Cells were maintained at 37° C. and 5% CO2. FBS was obtained from Tissue Culture Biologicals (Tulare, Calif.). Penicillin and streptomycin were purchased from Invitrogen Co. (Carlsbad, Calif.).
As a control, untreated cells were maintained in the solvent ethanol (E).

[2] = test system: AsPC-1, AsPC1-GTR, MIAPaCa-2, and MIAPaCa-2-GTR cell lines; assay: BD BioCoat tumor invasion assay; assay type: cell-based, human; details: 4 μmol/L
Method: The invasive activity of the drug resistant cell lines was tested by using a BD BioCoat Tumor Invasion Assay System (BD Biosciences, Bedford, Mass.) according to the manufacturer's protocol. […] The fluorescence was read using a TECAN Microplate Reader at 530/590 nm and photographed.

[3] = test system: human colon cancer HCT 116 cells; assay: MTT assay, HCT 116 cell growth; assay type: cell-based; details: read-out: inhibition on cell proliferation
Method: The concentrations were 10 μM, 20 μM, and 30 μM. After aspiration of growth medium, (3-(4,5-Dimethylthiazol-2-yl)-2,5-diphenyltetrazolium bromide (MTT; 1 mg/ml) was added to the cell cultures, followed by incubation for 3 hours at 37° C. After the cells were crystallized, the MTT was removed and dimethylsulfoxide (DMSO) was added to dissolve the metabolized MTT product. The absorbance was then measured on a Wallac Victor^3 1420 Multi-label counter at 540 nm.

PGE2 [4] = assay: PGE2 immunoassay, three PC lines; assay type: cell-based, human; details: 24 h serum-free; CDF or CUR 1-4 μMol/L, GEM 10 nMol/L
[5] = test system: COX-2, E-cadherin, PTEN, pAkt, tropomyosin expression; assay: Western blot of COX-2, E-cadherin, PTEN, pAkt, tropomyosin; assay type: cell-based, human; details: BxPC-3 cell line only, 72 h
[6] = test system: miR-21, miR-200b, miR-200c; assay: RT-PCR of miR-21, miR-200b, miR-200c in MIAPaCa-2 tumors; assay type: in vivo, mice
Method: Therefore, the expression of miRNAs (miRNA-200b, miR-200c, and miR-21) in MIAPaCa-2 tumors, was assessed with a TaqMan MicroRNA Assay kit (Applied Biosystems, Carlsbad, Calif.) following the manufacturer's protocol. 5 ng of total RNA was reverse transcribed and real-time PCR reactions were carried as previously described.

[7] = test system: NF-κB DNA binding activity; assay: EMSA for NF-κB DNA binding activity, three PC lines; assay type: cell-based, human; details: 72 h; CDF/CUR 1 or 4 μMol/L, GEM 10 nMol/L
Method: The DNA binding activity of the nuclear transcription factor, NF-κB was assessed in the BxPC-3, MIAPaCa-E, and MIAPaCa-M cell lines by EMSA. […] The cells were lysed in 400 μl of lysis buffer and the reaction was set up as described earlier in Ali, et al., id. The gel was scanned using an Odyssey Infrared Imaging System, (LI-COR, Inc., Lincoln, Nebr.). Equal protein loading was ensured by immunoblotting 10 μg of nuclear protein and probing with anti-retinoblastoma antibody.

[8] = Pancreas tissue pharmacokinetics after single intragastric dose; assay type: in vivo, mice
Method: as §1, §2, §3, §4

PGE2 [9] = assay: PGE2 immunoassay of conditioned medium, BxPC-3 and MIA PaCa-2; assay type: cell-based, human; details: 24 h
Method: The conditioned medium was collected and analyzed for PGE2 concentration, according to the manufacture's protocol, using a PGE2 high sensitivity immunoassay kit purchased from R & D Systems, Minneapolis, Minn. The optical density was measured at 450 nm and the concentration of PGE2 was calculated from the standard curve.

[10] = female, ICR-SCID, mouse, po, serum, 250 mg/kg single intragastric
[11] = serum, 250 mg/kg single intragastric
[12] = serum, as printed in text 'at 1 h'
[13] = female, ICR-SCID, mouse, po, pancreas, 250 mg/kg single intragastric
[14] = pancreas, 250 mg/kg single intragastric

| SMILES | Clast [1, 11] [ng/mL] | AUClast [1, 12] | inhibition at 10 µM (cellular 26S proteasome) [%] | inhibition at 20 µM (cellular 26S proteasome) [%] | inhibition at 30 µM (cellular 26S proteasome) [%] | inhibition of invasion [2] | PGE2 secretion level (PGE2 [4]) | E-cadherin expression [5] | expression of miR-200b and miR-200c in tumors [6] | NF-κβ DNA binding activity [7] | AUClast [8, 14] [µg·h/g] | Clast [8, 14] [µg/g] | Tlast [8, 14] [h] | PGE2 level in conditioned medium (PGE2 [9]; MIAPaCa-2 cells, 4 μM) | other results |
| --- | --- | --- | --- | --- | --- | --- | --- | --- | --- | --- | --- | --- | --- | --- | --- |
| COc1cc(/C=C/C(=O)C(=Cc2ccc(F)c(F)c2)C(=O)/C=C/c2ccc(O)c(OC)c2)ccc1O [CDF, (1E,6E)-1,7-bis(4-hydroxy-3-methoxyphenyl)hepta-1,6-diene{4(3,4 difluorobenzaldehyde)}-3,5-dione] | 40 | 1220 ng·h/mL | 34 | 51 | 61 | significant inhibition of invasion | significant reduction in PGE2 level | significantly enhanced | increased expression of both miR-200b, and miR-200c | significant inhibition in the DNA binding activity of NF-κβ in all three cell lines | 36.56 | 0.04 | 12.0 | significant decrease in PGE2 levels | AUC(0-t) [1, 10]: 1220 ng·h/mL; Cmax [1, 10]: 210 ng/mL; Tmax [1, 10]: 8 h; increase in systemic drug level over Curcumin ([1]; serum AUClast, oral 250 mg/kg): 2.7 fold; Tlast [1, 11]: 16.0 h; inhibition at 10 µM ([3]; HCT-116, 10 μM, 24 h): 24%; inhibition at 20 µM ([3]; HCT-116, 20 μM, 24 h): 39%; inhibition at 30 µM ([3]; HCT-116, 30 μM, 24 h): 68%; expression of MiR-21 in tumors [6]: significant reduction in the expression of MiR-21; AUClast in pancreas tissue relative to CUR ([8]; 250 mg/kg): 10.6 times; Cmax in pancreas tissue relative to CUR ([8]; 250 mg/kg): 4.3 times; Kp at 8 h ([8]; female, ICR-SCID, mouse, pancreas / serum, oral, 250 mg/kg, at 8 h, read-out: Cmax in pancreas relative to serum): 44.5; Cmax [8, 13]: 9350 ng/g; Tmax [8, 13]: 8 h; PGE2 level in conditioned medium (PGE2 [9]; BxPC-3 cells, 1 μM): significant decrease in PGE2 level |
| COc1cc(/C=C/C(=O)CC(=O)/C=C/c2ccc(O)c(OC)c2)ccc1O [CUR, (1E,6E)-1,7-bis(4-hydroxy-3-methoxyphenyl)hepta-1,6-diene-3,5-dione, reference compound] | 30 | 0.44 µg/mL | 27 | 47 | 64 | minimal inhibition on invasion | significant reduction in PGE2 level | significantly enhanced | minimal | much lower effects on NF-κβ DNA binding activity than the CDF-treated cells | 3.46 | 0.20 | 16.0 | significant decrease in PGE2 levels | AUClast [1, 11]: 440 ng·h/mL; Tlast ([1]; serum, 250 mg/kg single intragastric, 250 mg/kg): 8 h; Tlast ([1]; serum, 250 mg/kg single intragastric, listed as Curcumin, 250 mg/kg): 8.0 h; inhibition at 10 µM ([3]; HCT-116, 24 h): 24%; inhibition at 20 µM ([3]; HCT-116, 24 h): 53%; inhibition at 30 µM ([3]; HCT-116, 24 h): 49% |
